Source: patent US12391701B2, “Chromene-based compounds, methods and uses thereof” (University of Minho, priority 2019, dated 2025)

Columns and labels:
[1] = tested on: rapamycin-resistant A498 cell line; experiment: Cell viability, rapamycin-resistant A498; type: cell-based; settings: for IC50: Homo sapiens, A498
Protocol: In an embodiment, the antiproliferative activity of compounds MC421, MC409, MC408, MC350, MC416, MC410, MC411, MC415 and MC413 was further determined against drug-resistant renal carcinoma cell lines.
(§1) In an embodiment, cell viability assays were performed. MCF-7, Hs578T and MCF-10A cells were plated in triplicate in 96-multiwell culture plates, at 3000 cells per mL, or 5000 cells per mL for MDA-MB-468 (100 μL/well). The cells were then allowed to adhere in complete medium, over a period of 18-20 hours. Cells were subsequently treated with 7 different concentrations (from 0.1 to 40 μM or 5 to 60 μM) of compounds or control in fresh medium. HL-60, KG-1 and Jurkat cell lines were plated in 96-multiwell culture plates at 50.000 cells/100 μL per well and treated with different concentrations (from 0.001 to 2 μM) of the compounds described (or control). Cells were plated, in triplicate, at an initial density of 2000 cells/well for GAMG, 4000 cells/well for GL18 and 6000 cells/well for U87MG, in 96-well plates, and allowed to adhere for 18-20 hours. Cells were then treated with different concentrations of the compounds (0.005 to 100 μM) or with control. A498 and 786-O cells were plated at 2000 cells per mL, Caki-2 cells were plated at 3000 cells per mL and HK2 cells were plated at 2000 cells per mL in triplicate, in 96-multiwell culture plates (100 μL/well), and allowed to adhere over a period of 18-20 hours in complete medium. The cells were then treated with 7 different concentrations (from 0.1 to 40 μM or 5 to 60 μM) of compounds or control in fresh medium. After 72 h of incubation, the MTS (Promega) reduction assay was performed according to manufacturer's instructions to indirectly assess the percentage of viable cells through metabolic cell viability. After 1-2 hours of incubation with MTS in a humidified atmosphere at 37° C. and 5% CO2, absorbance was measured at 490 nm. For RCC cell lines, sulforhodamine B assay was used according to manufacturer's instructions. The data was log-transformed and the concentration of each compound that decreased the number of viable cells to 50% (IC50) relative to control was calculated using the GraphPad Prism 6 software.

[2] = tested on: renal carcinoma cell line A498; experiment: Cell viability (sulforhodamine B), A498; type: cell-based; settings: Homo sapiens, Table 5
Protocol: In an embodiment, the antiproliferative activity of the compounds was further determined against renal carcinoma cell lines and non-neoplastic kidney cell line.
In an embodiment, three human breast cancer cell lines Hs578T, MDA-MB-468 and MCF-7, and a normal breast cell line MCF-10A, were obtained from ATCC (American Type Culture Collection). The cancer cell lines were cultured in Dulbecco's modified Eagle medium, 4.5 g/l glucose (DMEM, Gibco) supplemented with 10% heating inactivated Fetal Bovine Serum (FBS, Gibco) and 1% antibiotic solution (Penicillin-Streptomycin, Gibco). The normal cell line was cultured in Dulbecco's Modified Eagle Medium: Nutrient Mixture F-12 (DMEM/F12, Gibco) supplemented with 5% heating inactivated FBS (Gibco), 1% antibiotic solution (Penicillin-Streptomycin, Gibco), 1% steroid hormone (Hydrocortisone, Sigma-Aldrich), 0.1% peptide hormone (Insulin, Sigma-Aldrich) and 0.01% protein complex (Cholera Toxin, Gibco). Two distinct human acute myeloid leukemia (AML) cell lines, HL-60 (FAB M2) and KG-1 (erythroleukemia-FAB M6), and one human lymphoblastic leukemia (ALL) cell line, Jurkat (T cell type), were also used. These three cell lines were obtained from German Collection of Microorganisms and Cell cultures (DMSZ®, Deutsche Sammlung von Mikroorganismen and Zellkulturen in German). Cells were cultured in RPMI 1640 medium (Biochrom®-Merck Millipore) supplemented with 10% heating inactivated FBS (Biochrom®-Merck Millipore) and 1% antibiotic/antimitotic mixture (Invitrogen®). Three human glioblastoma (GBM) cell line models, two established and commercially available cell lines (U87MG and GAMG, kind gift from Rui M. Reis) and one primary GBM culture (GLIB) were also used. GBM cells were cultures in DMEM (Biochrom-Merck Millipore), all supplemented with 10% FBS. The Renal cell carcinoma cell lines A498, 786-O, Caki-2 and HK2 were obtained from ATCC. The cancer cell line A498 was cultured in MEM medium (Biochrom®-Merck Millipore), 786-O was cultured in RPMI 1640 medium (Biochrom®-Merck Millipore), Caki-2 was cultured in Mc Coys medium (Biochrom®-Merck Millipore) and HK2 was cultured in RPMI 1640 medium (Biochrom®-Merck Millipore). All the media were supplemented with 10% heat inactivated FBS (Biochrom®-Merck Millipore) and 1% antibiotic/antimitotic mixture (Invitrogen®). All cells were grown in a humidified incubator at 37° C. and 5% CO2. For all assays, DMSO (Dimethyl Sulfoxide, Sigma-Aldrich) controls were used.
as §1, with “After 72 h of incubation, the MTS (Promega) reduction assay was performed according to manufacturer's instructions to indirectly assess the percentage of viable cells through metabolic cell viability. After 1-2 hours of incubation with MTS in a humidified atmosphere at 37° C. and 5% CO2, absorbance was measured at 490 nm. For RCC cell lines, sulforhodamine B assay was used according to manufacturer's instructions. The data was log-transformed and the concentration of each compound that decreased the number of viable cells to 50% (IC50) relative to control was calculated using the GraphPad Prism 6 software.” left out

Structure (SMILES)	Selectivity Index (vs HK2) A498 Resistant [1]	IC50 [1]	IC50 [2]
COc1cccc2c1Oc1nc(-c3ccccc3)[nH]c1C2 [MC350, 5-methoxy-2-phenyl-3,9-dihydrochromeno[2,3-d]imidazoles]	12.27	1.62 µM	830 nM
COc1cccc2c1Oc1nc(-c3ccc(F)cc3)[nH]c1C2C1c2cccc(OC)c2Oc2nc(-c3ccc(F)cc3)[nH]c21 (centres unmarked) [MC406, 2,2′-bis(4-fluorophenyl)-5,5′-dimethoxy-1,1,9,9′-tetrahydro-9,9′-bichromeno[2,3-]imidazoles]			1160 nM
COc1cccc2c1Oc1nc(-c3ccccc3F)[nH]c1C2 [MC407, 2-(2-fluorophenyl)-5-methoxy-3,9-dihydrochromeno[2,3-d]imidazoles]			1360 nM
COc1cccc2c1Oc1nc(-c3ccc(Br)cc3)[nH]c1C2 [MC408, 2-(4-bromophenyl)-5-methoxy-3,9-dihydrochromeno[2,3-d]imidazoles]	2.26	1.07 µM	140 nM
COc1cccc2c1Oc1nc(-c3ccc(F)cc3)[nH]c1C2 [MC409, 2-(4-fluorophenyl)-5-methoxy-3,9-dihydrochromeno[2,3-d]imidazoles]	5.84	0.51 µM	560 nM
COc1cccc2c1Oc1nc(-c3ccc(O)cc3)[nH]c1C2 [MC413, 4-(5-methoxy-3,9-dihydrochromeno[2,3-d]imidazol-2-yl)phenol]	12.32	0.77 µM	960 nM
CCOc1ccc(-c2nc3c([nH]2)Cc2cccc(OC)c2O3)cc1 [MC415, 2-(4-ethoxyphenyl)-5-methoxy-3,9-dihydrochromeno[2,3-d]imidazoles]	8.03	0.58 µM	120 nM
COc1cccc2c1Oc1nc(-c3ccc(Br)cc3)[nH]c1C2C1c2cccc(OC)c2Oc2nc(-c3ccc(Br)cc3)[nH]c21 (centres unmarked) [MC421, 2,2′-bis(4-bromophenyl)-5,5′-dimethoxy-1,1,9,9′-tetrahydro-9,9′-bichromeno[2,3-]imidazoles]	14.56	0.16 µM	340 nM
